From US6610883B1, “Compounds having selective activity for retinoid X receptors, and means for modulation of processes mediated by retinoid X receptors” (Ligand Pharmaceuticals, Inc., priority 1992, dated 2003)
Like-named read-outs stand apart in the source and are kept apart here.

What was measured:
apoA1 = assay: Circulating apoA1 in rats (Western Blot); conditions: 3 mg/kg orally, daily for four days
Description: Serum samples were taken and analyzed by Western Blot using antisera specific to rat apoA1.

[1] = rats
Method: Male Sprague-Dawley rats (160-200 gram) were obtained from Harlan. Animals were fed standard laboratory diets (Harlan/Teklad) and kept in an environmentally controlled animal house with a light period lasting from 6 a.m. to 6 p.m. Animals were treated with drugs prepared as suspensions in olive oil.
[…]
Plasma total cholesterol was measured enzymatically utilizing Boeringer Mannheim Diagnostics High Performance Cholesterol Methods with an ABBOTT VP Bichromatic Analyzer. cholesterol was measured after preparation of the HDL-containing fraction by heparin-manganese precipitation of plasma. HDL-cholesterol in this fraction was estimated as mentioned earlier. All HDL separations were checked for contamination by other lipoproteins with agarose gel electrophoresis.

HL60 cells [2] = assay: HL60 differentiation (NBT reduction); type: cell-based; conditions: for EC50: Homo sapiens
[3] = tested on: RPMI18226, a multiple myeloma; assay: Cell growth of RPMI18226; type: cell-based, human; conditions: RPMI18226, cell number and growth in semi-solid medium
Description: (§1) The effects on growth of these cells were monitored by evaluation of cell number, and also by evaluation of growth in semi-solid medium for the RPMI18226 cell line. […] The therapeutic index is defined as the ratio of efficacy to toxicity of a compound.

[4] = tested on: ME180, a squamous cell carcinoma; assay: Cell growth of ME180; type: cell-based, human; conditions: ME180, cell number
Description: as §1

RXRα/PPAR = assay: Co-transfection of RXRα and PPAR in HepG2 cells; type: cell-based
Description: Specifically, peroxisome proliferator-activated receptor (PPAR) is a member of the intracellular receptor super family that plays a role in the modulation of lipid homeostasis. […] These agents, called peroxisome proliferators, have been used in man as hypolipidemic agents.

[5] = tested on: transglutaminase activity in the HL60 cells; assay: Transglutaminase induction in HL60 cells
RAR = assay: apoA1 "A" site reporter co-transfection in HepG-2 cells, RAR
RXR = assay: apoA1 "A" site reporter co-transfection in HepG-2 cells, RXR; type: cell-based
skin of Rhino mice = assay: Skin irritation in Rhino mice; type: in vivo; conditions: compared with 9-cis- or all-trans-retinoic acid
Rhino mice utriculi = assay: Comedolytic test on Rhino mice; conditions: 0.1% solution, topical
[6] = tested on: RAR subfamily (RARα, RARβ, RARγ); assay: Co-transfection assay, dose response profiles, RAR subfamily; type: cell-based; conditions: in words
Description: (§2) The co-transfection assay provides a mechanism to evaluate the ability of a compound to modulate the transcription response initiated by an intracellular receptor. […] Berger, et al., J. Steroid Biochem Molec.
(§3) Briefly, the co-transfection assay involves the introduction of two plasmids by transient transfection into a retinoid receptor-negative mammalian cell background. The first plasmid contains a retinoid receptor cDNA and directs constitutive expression of the encoded receptor. The second plasmid contains a cDNA that encodes for a readily quantifiable protein, e.g., firefly luciferase or chloramphenicol acetyl transferase (CAT), under control of a promoter containing a retinoid acid response element, which confers retinoid dependence on the transcription of the reporter. In this co-transfection assay, all retinoid receptors respond to all-trans-retinoic acid in a similar fashion. This assay can be used to accurately measure efficacy and potency of retinoic acid and synthetic retinoids as ligands that interact with the individual retinoid receptor subtypes.
(§4) Accordingly, synthetic retinoid compounds of the current invention were evaluated for their interaction with retinoid receptor subtypes using the co-transfection assay in which CV-1 cells were co-transfected with one of the retinoid receptor subtypes, a reporter construct, and an internal control to allow normalization of the response for transfection efficiency. The following example is illustrative.
Co-transfection Assay In CV-1 Cells: A monkey kidney cell line, CV-1, was used in the cis-trans assay. Cells were transfected with two plasmids. […] The cis-vector contains an easily assayable gene product, in this case the firefly luciferase, coupled to a retinoid-responsive promoter, i.e., an RARE or RXRE. Addition of retinoic acid or an appropriate synthetic retinoid results in the formation of a retinoid-RAR or -RXR complex that activates the expression of luciferase gene, causing light to be emitted from cell extracts. […]

RXRβ = target: T1, RXRβ (Mus musculus, UniProt P28704); assay: Co-transfection (cis-trans) assay in CV-1 cells, RXRβ; type: cell-based; conditions: RXRβ
T1 construct: expressed in transfected cells; host or cells: CV-1 (monkey kidney)
T1 sequence (P28704 1-520): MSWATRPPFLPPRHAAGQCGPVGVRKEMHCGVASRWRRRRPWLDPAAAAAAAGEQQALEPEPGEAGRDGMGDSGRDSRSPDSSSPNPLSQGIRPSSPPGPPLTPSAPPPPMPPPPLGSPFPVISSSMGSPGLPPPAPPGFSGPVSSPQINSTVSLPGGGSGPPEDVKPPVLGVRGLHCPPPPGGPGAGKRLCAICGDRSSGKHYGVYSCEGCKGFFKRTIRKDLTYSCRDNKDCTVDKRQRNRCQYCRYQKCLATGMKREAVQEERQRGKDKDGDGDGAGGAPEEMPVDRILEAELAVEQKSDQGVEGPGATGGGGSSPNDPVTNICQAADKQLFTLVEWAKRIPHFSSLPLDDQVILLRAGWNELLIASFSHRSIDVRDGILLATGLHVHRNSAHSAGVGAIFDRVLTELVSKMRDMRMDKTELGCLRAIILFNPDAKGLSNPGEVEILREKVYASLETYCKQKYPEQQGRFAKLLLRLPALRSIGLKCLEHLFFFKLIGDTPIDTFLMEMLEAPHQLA
Description: as §2, §3, §4
(§5) Retinoids: All-tans-retinoic acid (RA) and 13-cis-retinoic acid (13-cis-RA) were obtained from Sigma. […] Retinoids were dissolved in dimethylsulfoxide for use in the transcriptional activation assays.
(§6) Co-transfection Assay In CV-1 Cells: A monkey kidney cell line, CV-1, was used in the cis-trans assay. Cells were transfected with two plasmids. […] The cis-vector contains an easily assayable gene product, in this case the firefly luciferase, coupled to a retinoid-responsive promoter, i.e., an RARE or RXRE. Addition of retinoic acid or an appropriate synthetic retinoid results in the formation of a retinoid-RAR or -RXR complex that activates the expression of luciferase gene, causing light to be emitted from cell extracts. The level of luciferase activity is directly proportional to the effectiveness of the retinoid-receptor complex in activating gene expression. This sensitive and reproducible co-transfection approach permits the identification of retinoids that interact with the different receptor isoforms.
(§7) Cells were cultured in DMEM supplemented with 10% charcoal resin-stripped fetal bovine serum, and experiments were conducted in 96-well plates. […] Cells were transfected for 6 h and then washed to remove the precipitate. The cells were then incubated for 36 h with or without retinoid. After the transfection, all subsequent steps were performed on a Beckman Biomek Automated Workstation. […] All determinations were performed in triplicate in two independent experiments and were normalized for transfection efficiency by using β-galactosidase as the internal control. […] Efficacy values less than 5% are not statistically different than the 0% background.

RXRα = target: T2, RXRα (Homo sapiens, UniProt P19793); assay: Co-transfection (cis-trans) assay in CV-1 cells, RXRα; type: cell-based; design: Emax: dose or concentration left out as unconfirmed
T2 construct: The first plasmid contains a retinoid receptor cDNA and directs constitutive expression of the encoded receptor; expressed in transfected cells; host or cells: CV-1 (monkey kidney)
T2 sequence (P19793 1-462): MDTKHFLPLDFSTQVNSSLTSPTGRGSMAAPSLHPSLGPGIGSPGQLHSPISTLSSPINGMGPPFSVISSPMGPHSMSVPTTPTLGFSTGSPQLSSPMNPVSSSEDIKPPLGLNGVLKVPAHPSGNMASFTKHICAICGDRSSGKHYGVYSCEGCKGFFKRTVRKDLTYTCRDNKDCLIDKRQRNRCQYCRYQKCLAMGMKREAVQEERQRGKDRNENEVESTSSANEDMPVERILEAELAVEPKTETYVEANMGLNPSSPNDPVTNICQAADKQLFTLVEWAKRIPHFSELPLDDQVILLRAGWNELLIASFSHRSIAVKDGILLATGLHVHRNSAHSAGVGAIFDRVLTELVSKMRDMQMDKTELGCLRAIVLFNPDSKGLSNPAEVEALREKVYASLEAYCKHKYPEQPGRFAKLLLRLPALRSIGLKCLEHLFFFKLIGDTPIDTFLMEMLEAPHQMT
Description: as §2, §3, §4, §5, §6, §7

[7] = tested on: myeloma cell line (RPMI 8226); assay: Thymidine incorporation in myeloma cell line RPMI 8226; type: cell-based
Description: This assay examines the incorporation of radiolabeled thymidine into DNA, and by determining the ability of a compound to inhibit thymidine incorporation into DNA, provides a measure of cell proliferation.

RXRγ = target: T3, RXRγ (Mus musculus, UniProt P28705); assay: Co-transfection (cis-trans) assay in CV-1 cells, RXRγ; type: cell-based
T3 construct: expressed in transfected cells; host or cells: CV-1 (monkey kidney)
T3 sequence (P28705 1-463): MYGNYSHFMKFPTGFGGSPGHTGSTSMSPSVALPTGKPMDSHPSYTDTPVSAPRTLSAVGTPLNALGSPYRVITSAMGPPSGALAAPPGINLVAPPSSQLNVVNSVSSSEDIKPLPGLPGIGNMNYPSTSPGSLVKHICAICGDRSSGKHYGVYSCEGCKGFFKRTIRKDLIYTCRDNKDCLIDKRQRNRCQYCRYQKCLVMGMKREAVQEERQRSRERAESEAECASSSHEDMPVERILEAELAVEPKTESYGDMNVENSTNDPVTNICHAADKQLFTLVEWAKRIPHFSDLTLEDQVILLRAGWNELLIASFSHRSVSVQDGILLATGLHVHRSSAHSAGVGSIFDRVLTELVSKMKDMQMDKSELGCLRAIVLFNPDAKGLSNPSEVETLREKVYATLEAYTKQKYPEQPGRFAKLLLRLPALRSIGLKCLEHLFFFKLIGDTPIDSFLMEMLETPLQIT
Description: as §2, §3, §4, §5, §6, §7

[8] = tested on: RXR subfamily (RXRα, RXRβ, RXRγ)
Description: as §2
as §3, with “This assay can be used to accurately measure efficacy and potency of retinoic acid and synthetic retinoids as ligands that interact with the individual retinoid receptor subtypes.” left out
as §4, with “The following example is illustrative.” left out

HL60 cells [9] = tested on: HL60 cells

SMILES: C=C(c1ccc(C(=O)O)cc1)c1cc2c(cc1C)C(C)(C)CCC2(C)C [3-methyl-TTNEB, 4-[1-(3,5,5,8,8-pentamethyl-5,6,7,8-tetrahydro-2-naphthyl)ethenyl]benzoic acid]
- Circulating apoA1 level (apoA1): significant increase in circulating apoA1 level
- HDL levels ([1]; 100 mg/kg i.p., 4 days): substantial and statistically significant increases in HDL levels
- Development of tolerance to pharmacological action ([1]; 30 day p.o. study, 10, 30, or 100 mg/kg): did not indicate development of tolerance
- Total cholesterol ([1]; four days): showed an increase due to the increase of the HDL-cholesterol fraction
- Triglycerides ([1]; four days): either no change or a slight decrease
- Lowest dose with significant increase of HDL-cholesterol ([1]; i.p., four days): 0.3 mg/kg
- Increase of plasma HDL-cholesterol ([1]; optimally efficacious dose): greater than 60%
- Induction of differentiation (NBT reduction) (HL60 cells [2]; HL60): not to induce undue differentiation
- EC50 (HL60 cells [2]; HL-60, read-out: EC50 for mediated differentiation): > 1000 µM
- Effect on cell growth [3]: inhibit cell growth in a concentration-dependent manner
- Effect on cell growth [4]: inhibit cell growth in a concentration-dependent manner
- Normalized Response (%) (RXRα/PPAR): 90%
- Induction of transglutaminase activity [5]: induce transglutaminase activity in the HL60 cells

SMILES: Cc1cc2c(cc1C(=O)c1ccc(C(=O)O)cc1)C(C)(C)CCC2(C)C [3-methyl-TTNCB, 4-[(3,5,5,8,8-pentamethyl-5,6,7,8-tetrahydro-2-naphthyl)carbonyl]benzoic acid]
- Reporter activation via apoA1 "A" site with RAR (RAR): no effect when RAR was used in the transfection
- Reporter activation via apoA1 "A" site with RXR (RXR): activation in the system
- Skin irritation (skin of Rhino mice): less irritating to the skin of Rhino mice than 9-cis- or all-trans-retinoic acid
- Inhibition of the utriculi diameter (Rhino mice utriculi): approximately 50%
- Activation of members of the RAR subfamily [6]: no significant activity for members of the RAR subfamily

SMILES: C/C(=C\c1ccc(C(=O)O)cc1)c1ccc2c(c1)C(C)(C)CCC2(C)C [TTNPB, reference compound]
- Emax at 10 µM (RXRβ; CV-1, maximal response relative to all-trans-retinoic acid at 10^−5 M, read-out: Efficacy): < 5%
- EC50 (RXRβ; CV-1 cells, luciferase reporter, 36 h, read-out: Potency): > 10 µM
- Emax (RXRα; CV-1, read-out: Efficacy): < 5%
- EC50 (RXRα; RXRα, CV-1 cells, luciferase reporter, 36 h, read-out: Potency): > 10 µM
- inhibition at 10 pM ([7]; Homo sapiens, RPMI-8226): 9%
- IC50 ([7]; Homo sapiens, RPMI 8226, FIG. 11, read-out: IC50, inhibition of thymidine incorporation): ~0.05 nM
- Concentration with essentially no effect on cell proliferation ([7]; RPMI 8226, FIG. 11): less than 10^−11 M
- EC50 (RXRγ): > 10 µM
- Emax at 10 µM (RXRγ; CV-1, RXRγ, maximal response relative to all-trans-retinoic acid at 10^−5 M, read-out: Efficacy): < 5%

SMILES: CC1=C(/C=C/C(C)=C/C=C/C(C)=C/C(=O)O)C(C)(C)CCC1 [all-trans-retinoic acid]
- EC50 (HL60 cells [2]; HL-60, HL60, NBT reduction, read-out: EC50 for mediated differentiation): 2 µM
- Activation of members of the RAR subfamily [6]: activate members of both the RAR and RXR subfamilies
- Activation of members of the RXR subfamily [8]: activate members of both the RAR and RXR subfamilies
- Effect on cellular proliferation (thymidine incorporation) (HL60 cells [9]): inhibits thymidine incorporation

SMILES: CC(C)(Oc1ccc(Cl)cc1)C(=O)O [clofibric Acid, clofibric acid, reference compound]
- Normalized Response (%) (RXRα/PPAR): 100%

SMILES: C=C(c1ccc2c(c1)C(C)(C)CCC2(C)C)c1ccc(C(=O)O)cn1 [Compound 56, 2-[1-(5,5,8,8-tetramethyl-5,6,7,8-tetrahydro-2-naphthyl)ethenyl]pyridine-5-carboxylic acid]
- melting point: 173 °C

SMILES: CC1=C(/C=C/C(C)=C\C=C\C(C)=C\C(=O)O)C(C)(C)CCC1 [9-cis-retinoic acid]
- Efficacy (RXRβ; maximal response relative to all-trans-retinoic acid at 10^−5 M): 140%
- Activation of members of the RAR subfamily [6]: activate members of both the RAR and RXR subfamilies
- Activation of members of the RXR subfamily [8]: activate members of both the RAR and RXR subfamilies
